Reference: patent US8486431B2 (priority 2005, dated 2013)

Assays:
[1] = tested on: Type A influenza strain A/PR8 (H1N1); parameters: species or system mice; details: mouse, in vivo
[2] = molecular target: T1, glucose-6-phosphate dehydrogenase (G6PD) (Saccharomyces cerevisiae, UniProt P11412); assay: Protein denaturation experiment: enzyme activity of G6PD reacted with chlorine dioxide; assay type: biochemical, yeast; details: 0.07 ppm chlorine dioxide in PBS pH7; 25° C., 2 minutes; compared with 0 ppm
T1 construct: purchased Sigma Corp
T1 sequence (P11412 whole entry): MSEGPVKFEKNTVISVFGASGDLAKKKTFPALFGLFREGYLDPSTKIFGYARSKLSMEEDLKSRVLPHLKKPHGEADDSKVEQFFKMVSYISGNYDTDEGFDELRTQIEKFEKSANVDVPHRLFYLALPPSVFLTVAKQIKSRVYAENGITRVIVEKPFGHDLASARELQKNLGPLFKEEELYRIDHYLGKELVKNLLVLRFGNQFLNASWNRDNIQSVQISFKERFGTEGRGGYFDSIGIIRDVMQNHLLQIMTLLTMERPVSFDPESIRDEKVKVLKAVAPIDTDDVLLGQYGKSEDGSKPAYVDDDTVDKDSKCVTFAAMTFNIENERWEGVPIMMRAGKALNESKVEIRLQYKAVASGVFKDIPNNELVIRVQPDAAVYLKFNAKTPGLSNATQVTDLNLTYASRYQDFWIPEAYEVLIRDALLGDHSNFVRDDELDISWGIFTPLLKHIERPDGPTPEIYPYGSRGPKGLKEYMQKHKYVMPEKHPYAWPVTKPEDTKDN
Experimental: The enzyme activity of G6PD was determined by observing absorption of NADPH by a spectral photometer, with using NADP and glucose-phosphoric acid as the substrate. Specific reaction conditions were set according to the manufacturer's (Sigma Corp.) instructions.
The concentration values on the horizontal axis are shown as being converted into the unit of ppm. The “specific activity” on the vertical axis represents enzyme activity (unit/mg) per 1 mg of protein

[3] = tested on: Type A influenza strain A/PR8 (H1N1); details: mouse, in vivo

[O][Cl+][O-] [chlorine dioxide]
Total virus amount in lung tissues on Day 3 after 10 LD50 virus exposure (TClD50 values) [1]: 10^3 TClD50 | lung virus amount relative to that of the control group (0 ppm group) [1]: 5% | total virus amounts in lung after delayed administration [1]: smaller than expected | reduction in the enzyme activity of G6PD [2]: about 60% | chlorine dioxide concentration required for preventing influenza virus infection [3]: 0.0001 ppm | chlorine dioxide gas concentration effective for influenza onset inhibition [3]: at least 0.05 ppm | deaths compared with 0 ppm group [3]: deaths occurred with delay | number of onsets of influenza and virus amount in the lung versus control group (0 ppm) [3]: no significant difference was found
